Data taken from US5162203A, “Methods of measuring isozymes and isozyme classes of alcohol dehydrogenase” (President and Fellows of Harvard College, priority 1989, dated 1992).

Experiments:
[1] = Stability of substrates and product solutions; format: physicochemical; conditions: for stability in stock solution: 20° C., 30 days, water:acetonitrile (70:30 v/v)
Protocol: The dilute solutions (300 μM) were prepared by diluting 1 ml of the stock solution to 10 ml with water.
Concentrations were determined spectrophotometrically using a molar absorptivity of 5700 M^-1 cm^-1 at 296 nm for IB and 1270 M^-1 cm^-1 at 330 nm for IIB.

β2 β2 ADH (Class I) = molecular target: T1, β2 β2 ADH (Class I) (Homo sapiens, UniProt P00325); assay: Kinetics of enzymatic reduction of methoxynaphthaldehydes by β2β2 ADH; format: biochemical; conditions: Table IV; nm = not measurable
T1 construct: beta2 allele (ADH1B*2)
T1 sequence (P00325 2-375): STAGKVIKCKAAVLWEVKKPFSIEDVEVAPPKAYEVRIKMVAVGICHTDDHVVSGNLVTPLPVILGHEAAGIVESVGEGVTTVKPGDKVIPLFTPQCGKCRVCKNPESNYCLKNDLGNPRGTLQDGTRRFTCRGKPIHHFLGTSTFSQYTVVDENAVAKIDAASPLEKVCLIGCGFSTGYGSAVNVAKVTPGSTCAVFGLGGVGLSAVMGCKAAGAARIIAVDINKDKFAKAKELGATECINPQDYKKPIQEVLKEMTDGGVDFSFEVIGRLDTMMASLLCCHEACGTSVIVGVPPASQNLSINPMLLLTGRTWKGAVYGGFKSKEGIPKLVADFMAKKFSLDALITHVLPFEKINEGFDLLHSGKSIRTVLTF
Protocol: (§1) Aldehyde reduction was monitored by following the decrease of absorption at 340 nm in 40 mM Mes buffer, pH 7.1. in the presence of saturating NADH, 50 μM for Class I and 100 μM for Class II. […] Initial reaction rates were measured and kinetic parameters determined by conventional procedures as described by Segel, 1975, Enzyme Kinetics, pp. 591-597, Wiley, N.Y.
All reaction mixtures (3 ml total volume) were prepared directly in 1 cm pathlength, 4 ml fluorometric cuvettes by adding 150 μl of the 300 μM substrate solution (e.g substrate IA or IIA) 100 μl of the 1 mM NADH solution (prepared as in part 5 above) and 2.69 ml of assay buffer (0.1M phosphate, pH 7.6). […]
(§2) The linear increase of fluorescence was then recorded for 1-10 minutes, until 0.03-1 μM of substrate was consumed. […] The added product fluorescence intensity was then measured Fluorescence measurements were optimized for samples with low activity (<1 nM/minute). […] Rates measured in the presence of the 0.2 mM ADH inhibitors. […]
The rates of aldehyde reduction, determined as initial velocities (V) and expressed in units of nM/minute, were calculated according to: [formula] where the quantity in parentheses is the slope of the linear fluorescence increase calculated from the quantities Ft and FO, the fluorescence at time t and at the beginning of the reaction, respectively. […]

Horse ADH = assay: Kinetics of enzymatic reduction of methoxynaphthaldehydes by horse ADH; format: biochemical; conditions: for Km / kcat: pH 7.0, 50 μM NADH, spectrophotometric, >90% EE isozyme; for v/v (EtOH): rate relative to ethanol oxidation at pH 10.0
Text: Crystalline horse ADH was purchased from Boehringer-Mannheim (Indianapolis,Ind.). NAD^+ and NADH, both grade III, were obtained as preweighed samples from Sigma Chemical Co. (St. Louis, Mo.); isobutyramide was from Aldrich., ethanol (100%) was from U.S. Industrial Chemicals Co. (New York, N.Y.); Mes acid (2-(N-morpholino)ethanesulfonic acid) was recrystallized from water. All other reagents were of analytical grade. Deionized, glass-distilled water was used throughout.
(§3) Standard assays for ethanol oxidation activity (Dalziel, 1957, Acta Chem Scand 11:1706-23) were carried out on a Cary 219 spectrophotometer interfaced with an Apple IIe microcomputer, using software provided by Varian Associates. The reaction mixture contained 2.5 mM NAD^+ in 0.1M glycine-NaOH buffer. pH 10.0, and 33 mM or 0.2M ethanol for Class I and Class II ADH, respectively.
as §1, with “N.Y. […]” for “N.Y.”
(§4) Additionally the reaction rates for these isozymes were compared to those measured by the standard assay for ethanol oxidation (see part 7 above) at pH 10.0 the optimum for oxidation of ethanol by ADH. The rate of IA reduction for all Class I isozymes except the β1 β1 form is 1.5- to 4-fold faster than that of ethanol oxidation as measured by the conventional ethanol oxidation assay. […] Table III illustrates that IIA is an excellent substrate for Class II (.eta.) ADH, with a rate of IIA reduction at least 8-fold faster than that of ethanol oxidation.

αβ1 ADH (Class I) = molecular target: T2, αβ1 ADH (Class I) (Homo sapiens, UniProt P00325+P07327); assay: Kinetics of enzymatic reduction of methoxynaphthaldehydes by αβ1 ADH; format: biochemical; conditions: rate relative to ethanol oxidation at pH 10.0
T2 construct: beta1 allele (ADH1B*1, Arg47 and Arg369 in mature count)
T2 sequence (P07327 2-375): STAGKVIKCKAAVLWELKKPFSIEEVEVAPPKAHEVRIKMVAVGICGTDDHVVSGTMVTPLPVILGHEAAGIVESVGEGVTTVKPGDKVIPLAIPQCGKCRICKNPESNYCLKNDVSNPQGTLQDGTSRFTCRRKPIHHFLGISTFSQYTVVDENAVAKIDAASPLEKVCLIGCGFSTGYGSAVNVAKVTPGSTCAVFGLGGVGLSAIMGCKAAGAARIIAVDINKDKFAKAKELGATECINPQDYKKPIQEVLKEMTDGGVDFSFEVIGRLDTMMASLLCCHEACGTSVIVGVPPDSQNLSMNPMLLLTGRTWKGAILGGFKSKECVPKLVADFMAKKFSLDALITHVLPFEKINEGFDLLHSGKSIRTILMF
T2 sequence (P00325 2-375): as the sequence (P00325 2-375) above
Protocol: as §3
as §1, with “N.Y. […]” for “N.Y.”
as §2
Additionally the reaction rates for these isozymes were compared to those measured by the standard assay for ethanol oxidation (see part 7 above) at pH 10.0 the optimum for oxidation of ethanol by ADH. […]

Class I ADH = assay: Kinetics of enzymatic reduction of methoxynaphthaldehydes by Class I ADH isozymes; format: biochemical, human; conditions: for kcat / Km: Table IV; for kcat: average for Class I isozymes except ββ forms; for Km: range over Class I isozymes
Protocol: as §1
(§5) All reaction mixtures (3 ml total volume) were prepared directly in 1 cm pathlength, 4 ml fluorometric cuvettes by adding 150 μl of the 300 μM substrate solution (e.g substrate IA or IIA) 100 μl of the 1 mM NADH solution (prepared as in part 5 above) and 2.69 ml of assay buffer (0.1M phosphate, pH 7.6). After thermal equilibration (25° C.) for 5 minutes, 60 μl of isozyme sample (either serum or purified ADH isozymes) was added to the cuvette.
(§6) The linear increase of fluorescence was then recorded for 1-10 minutes, until 0.03-1 μM of substrate was consumed. Larger substrate consumption was not found to be desirable (described in subpart (c) below). After this period the instrument sensitivity setting was reduced 10-30 fold, the signal compensated once again by zero suppression (see part 6 above), and 60 μl of 200-400 μM product (e.g., product IB or IIB) was added to provide an internal standard. The added product fluorescence intensity was then measured Fluorescence measurements were optimized for samples with low activity (<1 nM/minute). For samples with higher activity, repeat measurements were made with the serum volume reduced from 60 μl to 10 μl. Rates measured in the presence of the 0.2 mM ADH inhibitors. 4-MeP or 4-PeP, were made by adding 50 μl of 12 mM inhibitor to the cuvette prior to the assay buffer, and the reaction was carried out as above.
(§7) The rates of aldehyde reduction, determined as initial velocities (V) and expressed in units of nM/minute, were calculated according to: [formula] where the quantity in parentheses is the slope of the linear fluorescence increase calculated from the quantities Ft and FO, the fluorescence at time t and at the beginning of the reaction, respectively. Cst is the concentration of the product used as a standard added to the cuvette after the initial rate had been measured and Fst is the fluorescence intensity of the added product
as §4
The values for these constants were determined with purified Class II ADH or a mixture of purified Class I isozymes, under the fluorometric assay conditions described above in Example 1.

Class III (.chi.) ADH = Class III (.chi.) ADH (Homo sapiens, UniProt P11766); assay: Kinetics of enzymatic reduction of methoxynaphthaldehydes by Class III ADH; format: biochemical
Class III (.chi.) ADH, sequence (P11766 whole entry): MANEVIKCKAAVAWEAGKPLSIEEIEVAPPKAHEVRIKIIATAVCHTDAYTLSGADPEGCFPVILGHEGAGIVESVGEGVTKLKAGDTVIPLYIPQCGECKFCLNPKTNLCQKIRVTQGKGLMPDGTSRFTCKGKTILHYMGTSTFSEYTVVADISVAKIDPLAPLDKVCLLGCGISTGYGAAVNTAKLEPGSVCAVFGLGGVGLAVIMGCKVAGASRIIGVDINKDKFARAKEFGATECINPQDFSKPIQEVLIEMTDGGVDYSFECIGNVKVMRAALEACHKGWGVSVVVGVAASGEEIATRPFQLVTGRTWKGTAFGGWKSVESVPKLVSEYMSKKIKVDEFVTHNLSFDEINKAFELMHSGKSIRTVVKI

[2] = molecular target: ADH in human serum (Class II) (Homo sapiens, UniProt P08319); assay: Fluorometric measurement of serum ADH activity with substrate IIA; format: biochemical
ADH in human serum (Class II), sequence (P08319 whole entry): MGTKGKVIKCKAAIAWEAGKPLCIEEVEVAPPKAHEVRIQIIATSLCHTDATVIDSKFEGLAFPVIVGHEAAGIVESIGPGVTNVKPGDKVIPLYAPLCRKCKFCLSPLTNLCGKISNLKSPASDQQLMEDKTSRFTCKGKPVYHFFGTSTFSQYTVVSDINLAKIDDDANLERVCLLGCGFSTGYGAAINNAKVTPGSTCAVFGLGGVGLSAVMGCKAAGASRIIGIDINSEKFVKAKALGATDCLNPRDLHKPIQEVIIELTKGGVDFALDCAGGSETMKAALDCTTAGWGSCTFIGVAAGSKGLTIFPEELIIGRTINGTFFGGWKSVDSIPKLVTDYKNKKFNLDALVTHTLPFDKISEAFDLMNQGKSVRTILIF
Protocol: as §5
as §6, with “For samples with higher activity, repeat measurements were made with the serum volume reduced from 60 μl to 10 μl.” left out, “4-MeP or 4-PeP, were made by adding 50 μl of 12 mM inhibitor to the cuvette prior to the assay buffer, and the reaction was carried out as above.” left out
as §7
Using the instrumentation described in Example 1, part 7, reaction rates as low as 6.5 nM/minute for IA and 25 nM/minute for IIA were reproducible. The limits of detection, i.e.. the point at which the fluorescence change after eight minutes becomes twice the noise level, were 1 nM/minute and 5 nM/minute for the two substrates, IA and IIA, respectively. […]

Compound | stability in stock solution [1] | stability in crystalline state [1] | stability of dilute aqueous solutions [1] | Km (β2 β2 ADH (Class I)) | Km (Horse ADH) | kcat (Horse ADH) | v/v (EtOH) (Horse ADH) | v/v (EtOH) (αβ1 ADH (Class I)) | kcat (Class I ADH) | Km (Class I ADH) | a: ratio of specific rates for Class I to Class II ADH with IA as substrate (Class I ADH; fluorometric assay conditions) | Km (Class III (.chi.) ADH; Class III ADH) | Km (Class III (.chi.) ADH; pH 7.0, 50 μM NADH, NR = no reaction detected) | substrate quality for Class III ADH (Class III (.chi.) ADH; words) | limit of detection ([2]; fluorescence change twice noise after eight minutes) | lowest reproducible reaction rate ([2]; serum) | serum activity for IIA ([2]; thirty of thirty six hospital patient sera, average) | rate of reduction versus ethanol oxidation (Class I ADH; Class I isozymes, words) | d: ratio of specific rates for Class I ADH with IIA and IA as substrates (Class I ADH; average value) | ratio of specific rates for Class I to Class II ADH with IIA as substrate (Class I ADH; average value)
COc1ccc(C=O)c2ccccc12 [IA, 4-methoxy-1-naphthaldehyde] | spectral changes were not observed | stable | much less stable | nM | 33 µM | 0.433 s⁻¹ | 0.04 | 1.59 | 5.83 s⁻¹ | 0.6 to 8.5 µM | 0.022 | – | – | – | – | – | – | – | – | –
COc1ccc2cc(C=O)ccc2c1 [IIA, 6-methoxy-2-naphthaldehyde] | spectral changes were not observed | stable | much less stable | – | 2.2 µM | 35.83 s⁻¹ | 2.5 | 0.74 | 1.83 s⁻¹ | 0.4 to 11.5 µM | – | > 500 µM | > 500 µM | very poor substrate | 5 nM/min | 25 nM/min | 15 ± 7 nM/min | generally slower, but still comparable | 0.27 | 0.27
